For one assay, the system named is Target C. The experiment in a line: RT-qPCR canonical junction panel assay, Target C mRNA. Type of assay: cell-based. Particulars: Table 4, read-out: Target C IC50 (decrease in CJ mRNA levels). Put shortly: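 IC50 is the concentration giving 50% CJ decrease, from a 4-parameter logistic fit of percent response; response derived from ΔΔCt against housekeeper and DMSO over a fixed ΔCt window, with canonical exon-junction qPCR in compound-treated K562 or A673 cells.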
In general terms: In qPCR the cycle at which signal appears reflects the starting amount.

A further assay relates to MYB. The experiment in a line: HiBiT protein abundance assay, MYB (K562 HiBiT knock-in). Particulars: HiBiT knock-in K562 cells, 24 hours, top dose 10 μM. It counts as cell-based, human. The procedure, abridged: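 Endogenously HiBiT-tagged K562 lines were treated for 24 h at 37 °C with 10-point 3-fold dilutions (top 10 μM final, DMSO ≤0.25%). Lytic LgBiT complementation luminescence was normalized between unmodified K562 (PC) and DMSO-treated tagged cells (NC); IC50 was interpolated at 50% from a four-parameter logistic fit.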

Structures are written as SMILES.

Consider `C[C@H]1C[C@H](c2ccc3nc(-c4cc5cn(C)nc5c(F)c4O)ccc3n2)CCN1` (single isomer, unassigned) [Compound 356], for which the values for the IC50 with Target C and in the assay on MYB were 100 to 1000 nM and less than 100 nM, respectively.

Consider `Cc1c(O)c(-c2ccc3nc(N4CC[C@H](N[C@H]5C[C@H](F)C5)C4)ccc3n2)cc2cn(C)nc12` (single isomer, unassigned) [Compound 358], for which the IC50 with Target C is 100 to 1000 nM; in the assay on MYB, less than 100 nM.

As for `Cn1cc2cc(-c3ccc4nc(N5CC[C@@H](N)C5)ccc4n3)c(O)c(F)c2n1` (single isomer, unassigned) [Compound 362], the values for the IC50 in the assay with Target C and in the assay with MYB were 100 to 1000 nM and less than 100 nM, respectively.

With `CN[C@@H]1CCN(c2ccc3nc(-c4cc5cn(C)nc5c(C)c4O)ncc3n2)C1` (single isomer, unassigned) [Compound 368], the IC50 with Target C was 1000 to 10000 nM; in the assay on MYB, less than 100 nM.

As for `CN[C@H]1CCN(c2ccc3nc(-c4cc5cn(C)nc5c(C)c4O)ncc3n2)C1` (single isomer, unassigned) [Compound 369], the figures for the IC50 with Target C and with MYB were 1000 to 10000 nM and less than 100 nM, respectively.

Regarding `Cc1nc2c(F)c(O)c(-c3ccc4nc(N5CC[C@H](NC6(CF)CC6)C5)ccc4n3)cc2o1` (single isomer, unassigned) [Compound 373], the IC50 with Target C and in the assay with MYB was less than 100 nM throughout.

As for `Cc1nc2c(C)c(O)c(-c3ccc4nc(N5CC[C@H](NC6(CF)CC6)C5)ccc4n3)cc2o1` (single isomer, unassigned) [Compound 378], the IC50 in the assay with Target C and in the assay on MYB was less than 100 nM each time.

Take `Cc1nc2c(C)c(O)c(-c3ccc4nc(N5CC[C@@H](NC6(CF)CC6)C5)ccc4n3)cc2o1` (single isomer, unassigned) [Compound 379]: the IC50 in the assay with Target C was 100 to 1000 nM; with MYB, less than 100 nM.

`Cn1cc2cc(-c3ncc4nc(N5CC[C@@H](N)C5)ccc4n3)c(O)c(F)c2n1` (single isomer, unassigned) [Compound 380]: the results for the IC50 in the assay with Target C and in the assay on MYB were 1000 to 10000 nM and less than 100 nM, respectively.

In the case of `C[C@H]1C[C@@H](c2ccc3nc(-c4cc5cn(C)nc5c(F)c4O)ccc3n2)CCN1` (single isomer, unassigned) [Compound 383], the figures for the concentration for half-maximal inhibition (IC50) in the assay with Target C and with MYB were 100 to 1000 nM and less than 100 nM, respectively.

Consider `Cn1cc2cc(-c3ccc4nc(C5CCNC[C@H]5O)ccc4n3)c(O)cc2n1` (single isomer, unassigned) [Compound 386], for which the IC50 is more than 10000 nM in the assay on Target C and 100 to 1000 nM in the assay on MYB.

On to `Cn1cc2cc(-c3ccc4nc(N5CC[C@@H](NC(C)(C)C)C5)ccc4n3)c(O)c(F)c2n1` (single isomer, unassigned) [Compound 391], for which the half-maximal inhibitory concentration (IC50) in the assay with Target C and with MYB was less than 100 nM in each case.

Take `Cn1cc2cc(-c3ccc4nc(N5CC[C@H](NC(C)(C)C)C5)ccc4n3)c(O)c(F)c2n1` (single isomer, unassigned) [Compound 392]: the IC50 in the assay with Target C and in the assay on MYB was less than 100 nM throughout.

Take `Cc1c(O)c(-c2ncc3nc([C@@H]4CCNC4)ccc3n2)cc2cn(C)nc12` (single isomer, unassigned) [Compound 398]: the half-maximal inhibitory concentration (IC50) in the assay with Target C is more than 10000 nM; in the assay with MYB, 100 to 1000 nM.

With `Cc1nc2c(C)c(O)c(-c3ccc4nc(N5CC[C@@H](NC6CC6)C5)ncc4n3)cc2o1` (single isomer, unassigned) [Compound 432], the IC50 with Target C was less than 100 nM; in the assay with MYB, 100 to 1000 nM.

On to `Cc1nc2cc(O)c(-c3ccc4nc(N5CC[C@@H](NC6CC6)C5)ncc4n3)cc2o1` (single isomer, unassigned) [Compound 434], for which the IC50 in the assay with Target C and in the assay with MYB was 100 to 1000 nM throughout.

As to `Cc1nc2c(C)c(O)c(-c3ccc4cc(N5CC[C@@H](NC(C)(C)C)C5)ncc4n3)cc2o1` (single isomer, unassigned) [Compound 444], the values for the IC50 with Target C and in the assay on MYB were 100 to 1000 nM and less than 100 nM, respectively.

For `Cc1nc2c(C)c(O)c(-c3ccc4cc(N5CC[C@H](NC(C)(C)C)C5)ncc4n3)cc2o1` (single isomer, unassigned) [Compound 445], the 50% inhibitory concentration (IC50) in the assay on Target C lay in the range of 1000 to 10000 nM; in the assay with MYB, 100 to 1000 nM.

With `Cc1nc2cc(O)c(-c3ccc4nc(N5CC[C@@H](NC6(CF)CC6)C5)ccc4n3)cc2o1` (single isomer, unassigned) [Compound 488], the IC50 in the assay with Target C was less than 100 nM; with MYB it was 100 to 1000 nM.

For the compound `Cc1nc2cc(O)c(-c3ccc4nc(N5CC[C@H](NC6(CF)CC6)C5)ccc4n3)cc2o1` (single isomer, unassigned) [Compound 489], the results for the IC50 in the assay on Target C and in the assay on MYB were 100 to 1000 nM and less than 100 nM, respectively.

`Cc1nc2c(F)c(O)c(-c3ccc4nc(N5CC[C@@H](NC6(CF)CC6)C5)ccc4n3)cc2o1` (single isomer, unassigned) [Compound 491]: the IC50 in the assay with Target C and in the assay on MYB was less than 100 nM throughout.

For `Cn1cc2cc(-c3ccc4nc(N5CCC(NC6(CF)CC6)C5)ccc4n3)c(O)c(F)c2n1` (stereo in doubt) [Compound 353, 7-fluoro-5-{6-[(3R)-3-{[1-(fluoromethyl)cyclopropyl]amino}pyrrolidin-1-yl]-1,5-naphthyridin-2-yl}-2-methylindazol-6-ol], the IC50 in the assay with Target C and in the assay with MYB was less than 100 nM throughout.

Turning to `Cn1cc2cc(-c3ccc4nc(N5CCC(NC6(CF)CC6)C5)ccc4n3)c(O)c(F)c2n1` (stereo in doubt) [Compound 357, 7-fluoro-5-{6-[(3S)-3-{[1-(fluoromethyl)cyclopropyl]amino}pyrrolidin-1-yl]-1,5-naphthyridin-2-yl}-2-methylindazol-6-ol], the 50% inhibitory concentration (IC50) in the assay with Target C and with MYB was less than 100 nM each time.

As to `Cn1cc2cc(-c3ccc4nc(N5CCC(N)C5)ccc4n3)c(O)c(F)c2n1` (stereo in doubt) [Compound 363, 5-{6-[(3R)-3-aminopyrrolidin-1-yl]-1,5-naphthyridin-2-yl}-7-fluoro-2-methylindazol-6-ol], the IC50 in the assay with Target C and in the assay on MYB was less than 100 nM each time.

As to `Cc1nc2c(F)c(O)c(-c3ccc4nc(N5CC[C@@H](N[C@H]6C[C@@H](F)C6)C5)ccc4n3)cc2o1` (stereo in doubt) [Compound 375], the IC50 in the assay on Target C and in the assay on MYB was less than 100 nM throughout.

Turning to `Cc1nc2c(C)c(O)c(-c3ccc4nc(N5CC[C@@H](N[C@H]6C[C@@H](F)C6)C5)ccc4n3)cc2o1` (stereo in doubt) [Compound 376], the IC50 with Target C is 100 to 1000 nM; in the assay with MYB, less than 100 nM.

Turning to `Cc1nc2c(C)c(O)c(-c3ccc4nc(N5CC[C@H](N[C@H]6C[C@@H](F)C6)C5)ccc4n3)cc2o1` (stereo in doubt) [Compound 377], the IC50 in the assay on Target C and in the assay on MYB was less than 100 nM in each case.

Turning to `Cc1nc2cc(O)c(-c3ccc4nc(N5CC[C@@H](N[C@H]6C[C@@H](F)C6)C5)ccc4n3)cc2o1` (stereo in doubt) [Compound 395], the IC50 in the assay on Target C was 1000 to 10000 nM; in the assay with MYB, 100 to 1000 nM.

In the case of `Cc1nc2cc(O)c(-c3ccc4nc(N5CC[C@H](N[C@H]6C[C@@H](F)C6)C5)ccc4n3)cc2o1` (stereo in doubt) [Compound 396], the IC50 in the assay on Target C and in the assay with MYB was 100 to 1000 nM throughout.

Take `Cn1cc2cc(-c3ccc4nc(N5CC[C@@H](NC6(CF)CC6)C5)ccc4n3)c(O)cc2n1` [Compound 354, 5-{6-[(3R)-3-{[1-(fluoromethyl)cyclopropyl]amino}pyrrolidin-1-yl]-1,5-naphthyridin-2-yl}-2-methylindazol-6-ol]: the half-maximal inhibitory concentration (IC50) in the assay on Target C and with MYB was less than 100 nM in each case.

For `Cn1cc2cc(-c3ccc4nc(N5CC[C@H](NC6(CF)CC6)C5)ccc4n3)c(O)cc2n1` [Compound 355, 5-{6-[(3S)-3-{[1-(fluoromethyl)cyclopropyl]amino}pyrrolidin-1-yl]-1,5-naphthyridin-2-yl}-2-methylindazol-6-ol], the figures for the IC50 in the assay with Target C and with MYB were 100 to 1000 nM and less than 100 nM, respectively.

With `Cc1c(O)c(-c2ccc3nc(N4CCC(NC5(CF)CC5)C4)ccc3n2)cc2cn(C)nc12` (centres unmarked) [Compound 360, 5-[6-(3-{[1-(fluoromethyl)cyclopropyl]amino}pyrrolidin-1-yl)-1,5-naphthyridin-2-yl]-2,7-dimethylindazol-6-ol], the IC50 in the assay with Target C and in the assay with MYB was less than 100 nM each time.

For `Cc1c(O)c(-c2cc(C(C)O)c3nc(N4CCNCC4)ccc3n2)cc2cn(C)nc12` (centres unmarked) [Compound 364, 5-[4-(1-hydroxyethyl)-6-(piperazin-1-yl)-1,5-naphthyridin-2-yl]-2,7-dimethylindazol-6-ol], the IC50 in the assay on Target C was more than 10000 nM; with MYB, 1000 to 10000 nM.

Turning to `Cc1c(O)c(-c2ncc3nc(C4CCNCC4)ccc3n2)cc2cn(C)nc12` [Compound 370, 2,7-dimethyl-5-[6-(piperidin-4-yl)pyrido[3,2-d]pyrimidin-2-yl]indazol-6-ol], the IC50 in the assay on Target C lay within 1000 to 10000 nM; with MYB it was 100 to 1000 nM.

As to `Cc1nc2c(F)c(O)c(-c3ccc4nc(N5CC[C@H](N[C@H]6C[C@@H](F)C6)C5)ccc4n3)cc2o1` [Compound 374, 4-fluoro-2-methyl-6-[6-(3-{[(1r,3r)-3-fluorocyclobutyl]amino}pyrrolidin-1-yl)-1,5-naphthyridin-2-yl]-1,3-benzoxazol-5-ol], the IC50 with Target C and in the assay with MYB was less than 100 nM each time.

For the compound `CNC1CCN(c2ccc3nc(-c4cc(C#N)c5nc(C)cn5c4)ncc3n2)C1` (centres unmarked) [Compound 382, 2-methyl-6-{6-[3-(methylamino)pyrrolidin-1-yl]pyrido[3,2-d]pyrimidin-2-yl}imidazo[1,2-a]pyridine-8-carbonitrile], the IC50 is 1000 to 10000 nM with Target C and less than 100 nM with MYB.

As to `Cn1cc2cc(-c3ccc4nc(N5CC[C@H](NC6CC(F)(F)C6)C5)ccc4n3)c(O)cc2n1` [Compound 384], the values for the IC50 in the assay on Target C and with MYB were more than 10000 nM and 1000 to 10000 nM, respectively.

For orientation: IC50 means the concentration at which inhibition is half-maximal.
